Key:
[1] = molecular target: human D2-long dopamine receptor (Homo sapiens (Human), UniProt P14416); assay: Radioligand binding (125I-IABN competition), D2; settings: HEK cell membranes expressing human D2-long
Protocol: (§1) The affinities of the target compounds were determined using radioligand binding experiments. […] Competition curves were modeled for a single site. Data from competition dose-response curves were analyzed using Tablecurve program (Jandel). IC50 values were converted to equilibrium dissociation constants (Ki values) using the Cheng and Prusoff correction.

[2] = molecular target: T1, human D3 dopamine receptor (Homo sapiens (Human), UniProt P35462); assay: Whole Cell Adenylyl Cyclase Assay, D3; type: cell-based; settings: inhibition of forskolin (100 μM) stimulated cAMP, normalized to quinpirole; compound conc ≥10× Ki (per compound); mean ± S.E.M.
Protocol: (§2) The intrinsic activity of the compounds was evaluated by determining their ability to inhibit forskolin-dependent (100 μM) stimulation of adenylyl cyclase activity using a whole cell assay. A whole cell-cyclic AMP accumulation assay was performed with stably transfected HEK cells expressing human D2 or D3 dopamine receptors. This assay is an adaptation of an earlier published method (Su et al., Cyclic Nucleotide Res. 1976, 2, 257-285). Details regarding this method have been published (Chu, W. et al. Bioorg. Med. Chem. 2005, 13, 77-87; Taylor, M. et al. Synapse 2010, 64, 251-266). Confluent (60-80%) HEK cells transfected with recombinant D2-like dopamine receptors were grown in DMEM/10% fetal calf serum containing geneticin in […] flasks. The endogenous ATP pool is radioactively labeled by preincubating the cells in serum-free DMEM/25 mM Hepes medium containing 2 μCi/mL of [2,8-^3H]-adenine (20-Ci/mmol) in a 5% CO2 incubator at 37° C. for 75 min. The radioactive medium was removed by aspiration. Serum-free DMEM (5.6 mL) containing 25 mM HEPES, pH 7.4, and 0.1 mM of the phosphodiesterase inhibitor isobutylmethylxanthine was added to the flask. A […] aliquot of cells was removed and added to 50 μL of forskolin (100 μM) and 50 μL of test drug or quinpirole in DMEM-HEPES. The cells were incubated for 20 min at 37° C. (vortexing every 5 min). The reaction was terminated by the addition of 0.5 mL of 10% trichloroacetic acid (w/v) containing 1.0 mM unlabeled cyclic AMP as a recovery standard. Both the [^3H]-cyclic AMP and the [^3H]-ATP fractions were collected following separation using columns of Dowex AG-50W-X4 and alumina. The final yield of [^3H]-cyclic AMP is corrected for column recovery of unlabeled cyclic AMP determined spectrophotometrically (OD259). The results are reported as percent conversion of [^3H]-ATP into [^3H]-cyclic AMP. The values for the percent inhibition are reported as the actual percent of inhibition of the ^3H-cAMP accumulation relative to the assay performed in the absence of a test compound, minus basal activity. […] The percent maximum response is the value for the inhibition normalized to the value for the full agonist quinpirole.

[3] = molecular target: human D2 dopamine receptors (Homo sapiens (Human), UniProt P14416); assay: Whole Cell Adenylyl Cyclase Assay, D2; type: cell-based; settings: inhibition of forskolin (100 μM) stimulated cAMP, normalized to quinpirole; compound conc ≥10× Ki (per compound); mean ± S.E.M.
Protocol: as §2

[4] = molecular target: T1, human D3 dopamine receptor; assay: Radioligand binding (125I-IABN competition), D3; settings: for Ki: 125I-IABN competition, HEK cell membranes expressing human D3; for D2/D3 (D3 selectivity ratio, D2 Ki/D3 Ki): calculated D2 Ki/D3 Ki
Protocol: as §1

D3R [5] = molecular target: T2, D3R (Homo sapiens (Human), UniProt P35462); assay: β-Arrestin Recruitment Assay, U2OS DRD3; type: cell-based; settings: for IC50: antagonist vs EC80 8 nM PD128907, U2OS DRD3 cells, read-out: D3 IC50; for D2 IC50/D3 IC50: ratio of β-arrestin IC50 values
Protocol: (§3) Antagonist potency of the compounds against agonist induced recruitment of β-arrestin by D3R and D2LR was measured using DiscoverRx PathHunter eXpress kits. […] After incubation at 37° C. for 90 min, the DiscoveRx detection reagent was added, the plates were incubated at room temperature for 60 min and the luminescence was measured on a Synergy 4 plate reader (BioTek). The data were plotted and the agonist EC80 values were calculated using GraphPad Prism software. For antagonist activity, the cells were plated as described above and treated with multiple concentrations (starting from 500 nM, half log dilution, 10 dose points) of the test compounds in Plating Reagent with 0.1% DMSO.

D2LR = D2LR (Homo sapiens (Human), UniProt P14416); assay: β-Arrestin Recruitment Assay, CHO-K1 DRD2L; type: cell-based; settings: antagonist vs EC80 6 nM Pergolide, CHO-K1 DRD2L cells; read-out: D2 IC50
Protocol: as §3

human D2 receptors = human D2 receptors (Homo sapiens (Human), UniProt P14416); assay: D2 Mitogenesis Functional Assay (3H-thymidine uptake, CHOp-D2 cells); type: cell-based
Protocol: (§4) These assays are based on ^3H-thymidine uptake by cells that are proliferating.
CHO cells expressing human D2 receptors (CHOp-D2 cells) were maintained in alpha-MEM with 10% FCS, 0.05% pen-strep, and 200 μg/mL of G418. […] The cells were incubated at 37° C. in alpha-MEM with 10% FCS. After 48-72 hours, the cells were rinsed twice with serum-free alpha-MEM and incubated for 24 hours at 37° C. Serial dilutions of test compounds were made by the Biomek robotics system in serum-free alpha-MEM. In the functional assay for agonism, the medium was removed and replaced with 100 μL of test compound in serum-free alpha-MEM. In the antagonist assay, the serial dilution of the putative antagonist test compound was added in 90 μL (1.1× of final concentration) and 300 nM quinpirole (30 nM final) was added in […]. After another 24-hour incubation at 37° C., 0.25 μCi of [^3H]thymidine in alpha-MEM supplemented with 10% FCS was added to each well and the plates were further incubated for 2 hours at 37° C. The cells were trypsinized by addition of 10× trypsin solution (1% trypsin in calcium-magnesium-free phosphate-buffered saline) and the plates were filtered and counted as usual. Quinpirole was run as an internal control and dopamine was included for comparative purposes. Butaclamol was run as the standard antagonist.

D3R [6] = molecular target: T2, D3R; assay: D3 Mitogenesis Functional Assay (3H-thymidine uptake, CHOp-D3 cells); type: cell-based; settings: for EC50: CHOp-D3 cells, stimulation of mitogenesis, read-out: D3 Agonist EC50; for Emax at 10 µM: % maximum stimulation vs quinpirole (100%), read-out: D3 Agonist Emax; for D3 Antagonist Imax: inhibition of quinpirole stimulation of mitogenesis; for IC50: read-out: D3 Antagonist IC50
Protocol: as §4
CHO cells expressing human D3 receptors (CHOp-D3 cells) were maintained in alpha-MEM with 10% fetal bovine serum (FBS, Atlas Biologicals), 0.05% pen-strep, and 200 μg/ml of G418. […] The cells are incubated at 37° C. in alpha-MEM with 10% FBS. After 48-72 hours, the cells are rinsed twice with serum-free alpha-MEM and incubated for 24 hours at 37° C. Serial dilutions of test compounds were made by the Biomek robotics system in serum-free alpha-MEM. In the functional assay for agonism, the medium is removed and replaced with 100 μL of test compound in serum-free alpha-MEM. In the antagonist assay, the serial dilution of the putative antagonist test compound was added in 90 μL (1.1× of final concentration) and 300 nM quinpirole (30 nM final) was added in 10 uL. After another 16-hour incubation at 37° C., 0.25 μCi of [^3H]thymidine in alpha-MEM supplemented with 10% FBS was added to each well and the plates were further incubated for 2 hours at 37° C. The cells were trypsinized by addition of 10× trypsin solution (1% trypsin in calcium-magnesium-free phosphate-buffered saline) and the plates were filtered and counted as usual. Quinpirole was run as an internal control and dopamine was included for comparative purposes. Butaclamol was run as the standard antagonist. Data were analyzed using GraphPAD Prism and agonist potency was expressed as EC50 values or % stimulation and antagonist potency was expressed as IC50 values. In these assays, based on the % maximum stimulation as compared to the standard agonist quinpirole (100%) the compounds were classified into following categories: ≧90% full agonist; 70-90% partial to full agonist; <70% partial agonist; 0-20% potential antagonist.

T2 sequence (P35462 whole entry): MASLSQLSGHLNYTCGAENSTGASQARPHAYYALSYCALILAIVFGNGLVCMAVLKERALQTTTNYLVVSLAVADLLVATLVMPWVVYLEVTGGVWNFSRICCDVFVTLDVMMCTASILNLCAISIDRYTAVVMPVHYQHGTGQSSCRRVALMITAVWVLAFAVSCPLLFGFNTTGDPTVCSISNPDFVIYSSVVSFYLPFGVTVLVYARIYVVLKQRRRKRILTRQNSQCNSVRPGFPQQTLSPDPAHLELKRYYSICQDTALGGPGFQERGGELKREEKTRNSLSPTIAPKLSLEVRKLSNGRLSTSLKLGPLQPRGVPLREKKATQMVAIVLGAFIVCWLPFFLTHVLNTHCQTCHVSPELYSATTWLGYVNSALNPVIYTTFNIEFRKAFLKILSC
T1 sequence (P35462 whole entry): as above
human D2 dopamine receptors, sequence (P14416 whole entry): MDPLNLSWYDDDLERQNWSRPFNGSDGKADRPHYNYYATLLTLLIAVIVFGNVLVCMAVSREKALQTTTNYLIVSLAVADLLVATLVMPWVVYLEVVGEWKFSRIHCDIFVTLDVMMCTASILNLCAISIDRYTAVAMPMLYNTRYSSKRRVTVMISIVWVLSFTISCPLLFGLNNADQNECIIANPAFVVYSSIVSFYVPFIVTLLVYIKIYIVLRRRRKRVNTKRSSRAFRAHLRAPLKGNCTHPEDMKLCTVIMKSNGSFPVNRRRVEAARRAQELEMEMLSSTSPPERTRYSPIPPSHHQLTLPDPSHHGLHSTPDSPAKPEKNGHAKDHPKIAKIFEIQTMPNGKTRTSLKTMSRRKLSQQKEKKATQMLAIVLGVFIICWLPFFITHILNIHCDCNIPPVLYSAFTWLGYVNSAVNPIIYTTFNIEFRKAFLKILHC
human D2-long dopamine receptor, sequence (P14416 whole entry): as above
D2LR, sequence (P14416 whole entry): as above
human D2 receptors, sequence (P14416 whole entry): as above

| SMILES | Ki [1] [nM] | D3 Cyclase % Inhibition Normalized [2] [%] | D2 Cyclase % Inhibition Normalized [3] [%] | Ki [4] [nM] | D2/D3 (D3 selectivity ratio, D2 Ki/D3 Ki) [4] | IC50 (D3R [5]) [nM] | D2 IC50/D3 IC50 (D3R [5]) | IC50 (D2LR) [nM] | EC50 (human D2 receptors; CHOp-D2 cells, stimulation of mitogenesis, read-out: D2 Agonist EC50) [nM] | Emax at 10 µM (human D2 receptors; at 10 μM, % maximum stimulation vs quinpirole (100%), read-out: D2 Agonist Emax) [%] | D2 Antagonist Imax (human D2 receptors; at 10 μM, inhibition of quinpirole stimulation of mitogenesis) [% at 10 μM] | IC50 (human D2 receptors; read-out: D2 Antagonist IC50) [nM] | EC50 (D3R [6]) [nM] | Emax at 10 µM (D3R [6]) [%] | D3 Antagonist Imax (D3R [6]) [%] | IC50 (D3R [6]) [nM] |
| --- | --- | --- | --- | --- | --- | --- | --- | --- | --- | --- | --- | --- | --- | --- | --- | --- |
| Cc1cc(N2CCN(CCCCNC(=O)N3CCN(c4ccccc4)CC3)CC2)nc(C(C)(C)C)n1 [Compound 5, N-(4-(4-(2-(tert-Butyl)-6-methylpyrimidin-4-yl)piperazin-1-yl)butyl)-4-phenylpiperazine-1-carboxamide] | 366 ± 18 | 73.4 ± 11.0 | 54.5 ± 4.5 | 2.7 ± 0.1 | 136 | 3.86 ± 2.51 | 97 | 376 ± 31 | – | – | – | – | – | – | – | – |
| CC(C)(C)c1nc(N2CCN(CCCCNC(=O)N3CCN(c4ccccn4)CC3)CC2)cc(C(F)(F)F)n1 [Compound 29, N-(4-(4-(2-(tert-Butyl)-6-(trifluoromethyl)pyrimidin-4-yl)piperazin-1-yl)butyl)-4-(pyridin-2-yl)piperazine-1-carboxamide] | 740 ± 98.3 | 60.9 ± 4.0 | 21.8 ± 6.6 | 8 ± 1.6 | 92 | – | – | – | > 10000 | < 1 | 99.9 | 232 ± 61 | > 10000 | < 5 | 83.8 | 54.7 ± 9.4 |
| CN(C)Cc1c(C(=O)NCCCCN2CCN(c3cc(C(F)(F)F)nc(C(C)(C)C)n3)CC2)nc2ccccn12 [Compound 120, N-(4-(4-(2-(tert-Butyl)-6-(trifluoromethyl)pyrimidin-4-yl)piperazin-1-yl)butyl)-3-((dimethylamino)methyl)imidazo[1,2-a]pyridine-2-carboxamide] | 301 | 47.4 ± 4.4 | 8.9 ± 5.0 | 28.8 ± 6.1 | 10 | 7.2 ± 3.68 | 30 | 217 ± 10 | – | – | – | – | – | – | – | – |
| CN(C)Cc1cccc2nc(C(=O)NCCCCN3CCN(c4cc(C(F)(F)F)nc(C(C)(C)C)n4)CC3)cn12 [Compound 121, N-(4-(4-(2-(tert-Butyl)-6-(trifluoromethyl)pyrimidin-4-yl)piperazin-1-yl)butyl)-5-((dimethylamino)methyl)imidazo[1,2-a]pyridine-2-carboxamide] | 298 | – | – | 27.3 ± 3.4 | 11 | 28.8 ± 2.7 | 10 | 281 ± 43 | – | – | – | – | – | – | – | – |

The next lines start with the values.

| Ki [1] [nM] | D3 Cyclase % Inhibition Normalized [2] [%] | D2 Cyclase % Inhibition Normalized [3] [%] | Ki [4] [nM] | D2/D3 (D3 selectivity ratio, D2 Ki/D3 Ki) [4] | IC50 (D3R [5]) [nM] | D2 IC50/D3 IC50 (D3R [5]) | IC50 (D2LR) [nM] | EC50 (human D2 receptors; CHOp-D2 cells, stimulation of mitogenesis, read-out: D2 Agonist EC50) [nM] | Emax at 10 µM (human D2 receptors; at 10 μM, % maximum stimulation vs quinpirole (100%), read-out: D2 Agonist Emax) [%] | D2 Antagonist Imax (human D2 receptors; at 10 μM, inhibition of quinpirole stimulation of mitogenesis) [% at 10 μM] | IC50 (human D2 receptors; read-out: D2 Antagonist IC50) [nM] | EC50 (D3R [6]) [nM] | Emax at 10 µM (D3R [6]) [%] | D3 Antagonist Imax (D3R [6]) [%] | IC50 (D3R [6]) [nM] | SMILES |
| --- | --- | --- | --- | --- | --- | --- | --- | --- | --- | --- | --- | --- | --- | --- | --- | --- |
| 994 ± 106 | 30.0 ± 7.9 | −39.1 ± 12.5 | 2.3 ± 0.5 | 432 | 0.8 ± 0.24 | 196 | 157 ± 11 | – | – | – | – | – | – | – | – | COc1ccc2c(c1)CN(C(=O)NCCCCN1CCN(c3cc(C(F)(F)F)nc(C(C)(C)C)n3)CC1)C2 [Compound 40, N-(4-(4-(2-(tert-Butyl)-6-(trifluoromethyl)pyrimidin-4-yl)piperazin-1-yl)butyl)-5-methoxyisoindoline-2-carboxamide] |
| 1620 ± 402 | 64.3 ± 10.4 | – | 11 ± 2.4 | 147 | 28.1 ± 4.9 | >18 | > 500 | – | – | – | – | > 10000 | < 5 | 81.2 | 2000 ± 480 | CC(C)(C)c1nc(N2CCN(CCCCNC(=O)N3CCC(c4ccccc4)CC3)CC2)cc(C(F)(F)F)n1 [Compound 48, N-(4-(4-(2-(tert-Butyl)-6-(trifluoromethyl)pyrimidin-4-yl)piperazin-1-yl)butyl)-4-phenylpiperidine-1-carboxamide] |
| 536 ± 118 | 61.7 ± 6.4 | 6.3 ± 4.3 | 3 ± 0.2 | 182 | 26.2 ± 10.2 | >19 | > 500 | – | – | – | – | – | – | – | – | CC(C)(C)c1nc(N2CCN(CCCCNC(=O)N3CCc4c([nH]c5ccccc45)C3)CC2)cc(C(F)(F)F)n1 [Compound 55] |
| 5160 ± 822 | 53.4 ± 13.0 | – | 35.3 ± 4.8 | 146 | 33.7 ± 14.3 | >15 | > 500 | – | – | – | – | – | – | – | – | O=C(NCCCCN1CCN(c2ccnc3ccccc23)CC1)C1CCC(c2ccccc2)CC1 (stereo not drawn) [Compound 104, 4-Phenyl-N-(4-(4-(quinolin-4-yl)piperazin-1-yl)butyl)cyclohexanecarboxamide] |

From patent publication US9598387B2 (Southern Research Institute, priority 2012, dated 2017)
